Results on 16 compounds are retold here after ChEMBL document CHEMBL1133139, “Stereochemistry of halopyridyl and thiazolyl thiourea compounds is a major determinant of their potency as nonnucleoside inhibitors of HIV-1 reverse transcriptase” (Bioorg Med Chem Lett, 2000).

In test [1] the target is T1, Human immunodeficiency virus type 1 reverse transcriptase (Human immunodeficiency virus 1, UniProt Q72547). Description: Compound was evaluated for its inhibitory activity against recombinant HIV-1 Reverse transcriptase using cell free RT inhibition assay.
Test [2] relates to Human immunodeficiency virus 1. The experiment in a line: Inhibitory activity against NNI-resistant HIV-1 strain A17 with Y181C mutation. It counts as functional, organism-based.
A further test has as its system H9. Description: Inhibitory activity against multidrug resistant HIV-1 strain RT-MDR. It is filed as functional, cell-based. To be noted: Homo sapiens.
Test [3] has as its system Human immunodeficiency virus 1. The experiment in a line: Inhibitory activity against NNI-resistant HIV-1 strain A17 with Y181C,K103N mutation. It is filed as functional, organism-based.
Test [4] is described as follows: Inhibit the replication of the HIV-1 strain […] in human peripheral blood mononuclear cell. It is filed as functional.
Test [5] can be described thus: Compound was evaluated for its ability to inhibit the replication of the HIV-1 strain […] in human peripheral blood mononuclear cells. It is filed as functional.
Test [6] addresses T1, Human immunodeficiency virus type 1 reverse transcriptase. Description: Binding affinity against HIV reverse transcriptase (Estimated Ki).

As usually defined, the IC50 is the concentration that inhibits the measured activity by half. Broadly, the Ki is a measure of affinity in units of concentration, obtained from inhibition or displacement.

As to `C[C@H](/N=C(\S)Nc1ccc(Cl)cn1)c1ccccc1`, the IC50 in test [1] is greater than 100000 nM.

Take `C[C@@H](NC(=S)Nc1ccc(Cl)cn1)c1ccccc1`: the IC50 is 200 nM in test [2]; 10 nM in the test on H9; 10200 nM in test [3]; 1200 nM in test [1]; 10 nM in test [4].

In the case of `C[C@@H](NC(=S)Nc1ccc(Br)cn1)C1CCCCC1`, the half-inhibitory concentration (IC50) in test [5] amounted to 1 nM; in test [2], 400 nM; in the test on H9 it was 200 nM; in test [3], 10000 nM; in test [1], 1200 nM. Also, in test [6], the Ki is 1100 nM.

As to `Fc1ccccc1CCNC(=S)Nc1ccc(Br)cn1`, the half-maximal inhibitory concentration (IC50) in test [2] is 200 nM; in the test on H9, 5 nM; in test [3], 41000 nM; in test [4], less than 1 nM. The Ki in test [6] is 600 nM.

As to `C[C@@H](/N=C(\S)Nc1ccc(Cl)cn1)C1CCCCC1`, the IC50 in test [2] came out at 70 nM; with H9 it was 60 nM; in test [3], 8200 nM; in test [1], 1400 nM; in test [4] it was 25 nM. Further, the inhibition constant Ki in test [6] is 1200 nM.

With `C[C@H](NC(=S)Nc1ccccn1)C1CCCCC1`, the IC50 in test [1] was greater than 100000 nM; in test [4] it was greater than 1000 nM. Moreover, the Ki in test [6] is greater than 100000 nM.

On to `C[C@@H](/N=C(\S)Nc1ccccn1)C1CCCCC1`, for which the 50% inhibitory concentration (IC50) in test [1] is greater than 100000 nM; in test [4], greater than 1000 nM. Besides, the Ki in test [6] is greater than 100000 nM.

Take `C[C@H](/N=C(\S)Nc1ccc(Cl)cn1)C1CCCCC1`: the IC50 is greater than 100000 nM in test [1] and greater than 1000 nM in test [4]. Further, in test [6], the Ki was greater than 100000 nM.

Take `C[C@@H](/N=C(\S)Nc1nccs1)C1CCCCC1`: the IC50 in test [2] was 900 nM; with H9 it was 5600 nM; in test [3] it was 5800 nM; in test [1], 13000 nM; in test [4], 1 nM. The inhibitory constant (Ki) in test [6] was 12000 nM.

For `C[C@@H](NC(=S)Nc1ccc(Br)cn1)c1ccccc1`, the half-maximal inhibitory concentration (IC50) was 10 nM in test [2]; 5 nM in the test with H9; 2700 nM in test [3]; 1600 nM in test [1]; 10 nM in test [4].

Consider `C[C@H](NC(=S)Nc1nccs1)C1CCCCC1`, for which the IC50 in test [1] is greater than 100000 nM; in test [4] it was greater than 1000 nM. Also, in test [6], the Ki is greater than 100000 nM.

Regarding `C[C@H](/N=C(\S)Nc1ccc(Br)cn1)C1CCCCC1`, the IC50 in test [1] was greater than 100000 nM; in test [4], greater than 1000 nM. The inhibitory constant (Ki) in test [6] is greater than 100000 nM.

Regarding `C[C@H](/N=C(\S)Nc1ccc(Br)cn1)c1ccccc1`, the 50% inhibitory concentration (IC50) in test [1] was greater than 100000 nM; in test [4] it was greater than 1000 nM.

For `CC(C)Nc1cccnc1N1CCN(C(=O)c2cc3cc(NS(C)(=O)=O)ccc3[nH]2)CC1` [DELAVIRDINE], the IC50 in test [2] was 50000 nM; in the test on H9, 400 nM; in test [3], greater than 100000 nM; in test [4], 9 nM.

With `Cc1ccnc2c1NC(=O)c1cccnc1N2C1CC1` [NEVIRAPINE], the concentration for half-maximal inhibition (IC50) is greater than 100000 nM in test [2], 5000 nM with H9, greater than 100000 nM in test [3] and 34 nM in test [4].

For `S=C(NCCc1ccccn1)Nc1ccc(Br)cn1` [TROVIRDINE], the IC50 in test [2] is 500 nM; with H9 it was 20 nM; in test [3], greater than 100000 nM; in test [4], 7 nM. The inhibitory constant (Ki) in test [6] was 600 nM.
